Test results published in ChEMBL document CHEMBL1201862, “PubChem BioAssay data set” (2004).
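The compound was tested at five concentrations on cells cultured in 96-well plates, with a 48-hour exposure period. GI50: concentration for 50% inhibition of growth.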 Active and inactive are the calls of the source. Rule as the data show it: active = GI50 up to about 1.1 µM and inactive = higher.

Columns and labels:
Test in all cases: NCI anticancer screen, dose series, 48 h
UO-31 = tested on: UO-31
EKVX = tested on: EKVX
Malme-3M = tested on: Malme-3M
SF-539 = tested on: SF-539
NCI-H522 = tested on: NCI-H522
OVCAR-5 = tested on: OVCAR-5
SNB-19 = tested on: SNB-19
SF-268 = tested on: SF-268
NCI-H226 = tested on: NCI-H226
NCI-H23 = tested on: NCI-H23
MOLT-4 = tested on: MOLT-4
A549 = tested on: A549
OVCAR-8 = tested on: OVCAR-8
OVCAR-3 = tested on: OVCAR-3
HOP-92 = tested on: HOP-92
UACC-257 = tested on: UACC-257
OVCAR-4 = tested on: OVCAR-4

Measured: GI50

CC1CCC2(OCCO2)[C@]2(C)CC(O)C(=O)C=C12 (stereo partly specified)
inactive: UO-31 > 100 µM | EKVX > 100 µM | Malme-3M > 100 µM | SF-539 > 100 µM | NCI-H522 > 100 µM | OVCAR-5 > 100 µM | SNB-19 > 100 µM | SF-268 > 100 µM | NCI-H226 > 100 µM | NCI-H23 > 100 µM | MOLT-4 > 100 µM | A549 > 100 µM | OVCAR-8 > 100 µM | OVCAR-3 > 100 µM | HOP-92 > 100 µM | UACC-257 > 100 µM

C/C(CN1C(=O)c2ccccc2C1=O)=N\NS(=O)(=O)c1ccc(Cl)cc1
inactive: UO-31 > 100 µM | EKVX > 100 µM | Malme-3M > 100 µM | SF-539 > 100 µM | NCI-H522 > 100 µM | OVCAR-5 > 100 µM | SNB-19 > 100 µM | NCI-H226 > 100 µM | NCI-H23 > 100 µM | MOLT-4 > 100 µM | OVCAR-4 > 100 µM | A549 > 100 µM | OVCAR-8 > 100 µM | OVCAR-3 > 100 µM | UACC-257 > 100 µM

O=C1[C@H]2ON(c3ccccc3)C(c3ccccc3)[C@H]2C(=O)N1c1ccc(Cc2ccc(N3C(=O)[C@@H]4ON(c5ccccc5)C(c5ccccc5)[C@@H]4C3=O)cc2)cc1 (stereo partly specified)
inactive: UO-31 > 100 µM | Malme-3M > 100 µM | SF-539 > 100 µM | OVCAR-5 > 100 µM | SF-268 > 100 µM | NCI-H226 > 100 µM | NCI-H23 > 100 µM | MOLT-4 > 100 µM | OVCAR-4 > 100 µM | A549 > 100 µM | OVCAR-3 > 100 µM | HOP-92 > 100 µM | UACC-257 > 100 µM

Cc1nc2ccccc2c(=O)n1/N=C(\N=N\c1cc(Cl)ccc1Cl)c1cccc(-c2ccco2)c1
inactive: UO-31 37.7 µM | EKVX > 100 µM | Malme-3M > 100 µM | SF-539 > 100 µM | OVCAR-5 > 100 µM | SNB-19 > 100 µM | SF-268 92 µM | NCI-H226 > 100 µM | NCI-H23 > 100 µM | MOLT-4 35.3 µM | OVCAR-4 > 100 µM | A549 > 100 µM | OVCAR-8 95.9 µM | OVCAR-3 > 100 µM | HOP-92 27.6 µM | UACC-257 > 100 µM

c1cnc2nc3n(c2c1)CSC3
inactive: UO-31 > 100 µM | EKVX > 100 µM | Malme-3M > 100 µM | SF-539 > 100 µM | NCI-H522 > 100 µM | OVCAR-5 > 100 µM | SF-268 > 100 µM | NCI-H226 > 100 µM | NCI-H23 > 100 µM | MOLT-4 > 100 µM | OVCAR-4 > 100 µM | A549 > 100 µM | OVCAR-8 > 100 µM | OVCAR-3 > 100 µM | HOP-92 > 100 µM | UACC-257 > 100 µM

O=S(=O)(N/N=C/c1ccc(Cl)c(Cl)c1)c1ccccc1
inactive: UO-31 27 µM | EKVX 64.9 µM | Malme-3M > 100 µM | SF-539 44.8 µM | OVCAR-5 38.2 µM | SF-268 31 µM | NCI-H226 58.5 µM | NCI-H23 36.3 µM | MOLT-4 28.1 µM | OVCAR-4 55 µM | A549 39.7 µM | OVCAR-8 25.7 µM | OVCAR-3 24.5 µM | HOP-92 9.82 µM | UACC-257 38.8 µM

COc1ccc(CC2NCCc3c2[nH]c2ccccc32)cc1 (stereo unspecified)
inactive: UO-31 41.5 µM | EKVX > 100 µM | SF-539 42.1 µM | OVCAR-5 > 100 µM | SNB-19 > 100 µM | SF-268 79.6 µM | NCI-H226 > 100 µM | MOLT-4 31.9 µM | OVCAR-4 54 µM | A549 > 100 µM | OVCAR-8 > 100 µM | OVCAR-3 64.6 µM | HOP-92 16 µM

CCOC(=O)Nc1ccc(S(=O)(=O)I)cc1.CCOC(=O)Nc1ccc(S(=O)(=O)I)cc1.CN(C=O)C1=C(N(C)C=O)C(N(C)C=O)=C(N(C)C=O)C(=O)C1=O
inactive: UO-31 > 100 µM | Malme-3M > 100 µM | SF-539 > 100 µM | OVCAR-5 > 100 µM | SNB-19 > 100 µM | SF-268 > 100 µM | NCI-H23 > 100 µM | MOLT-4 > 100 µM | A549 > 100 µM | OVCAR-8 > 100 µM | HOP-92 > 100 µM | UACC-257 > 100 µM

CCc1c(OC(C)=O)c2c(NC3OC(COC(C)=O)C(OC(C)=O)C(OC(C)=O)C3OC(C)=O)nc(OC)nc2oc1=O (stereo unspecified)
inactive: UO-31 > 100 µM | EKVX > 100 µM | Malme-3M > 100 µM | SF-539 > 100 µM | OVCAR-5 > 100 µM | SNB-19 > 100 µM | NCI-H226 > 100 µM | NCI-H23 > 100 µM | MOLT-4 > 100 µM | OVCAR-4 > 100 µM | A549 > 100 µM | OVCAR-8 > 100 µM | OVCAR-3 > 100 µM | UACC-257 > 100 µM

CC(=O)OC12CCCCC1C1(CCCC1)NC2=O (stereo unspecified)
inactive: UO-31 > 100 µM | EKVX > 100 µM | Malme-3M > 100 µM | SF-539 > 100 µM | OVCAR-5 > 100 µM | SNB-19 > 100 µM | SF-268 > 100 µM | NCI-H226 > 100 µM | NCI-H23 > 100 µM | MOLT-4 > 100 µM | OVCAR-4 > 100 µM | A549 > 100 µM | OVCAR-8 > 100 µM | OVCAR-3 > 100 µM | UACC-257 > 100 µM

CC(C)[C@@H]1C=C(c2ccccc2)c2ccccc2C1C(C#N)(C#N)C(C)C (stereo partly specified)
inactive: UO-31 > 100 µM | EKVX > 100 µM | Malme-3M > 100 µM | SF-539 > 100 µM | OVCAR-5 > 100 µM | SNB-19 > 100 µM | SF-268 > 100 µM | NCI-H226 > 100 µM | NCI-H23 76 µM | MOLT-4 48.6 µM | OVCAR-4 82.4 µM | A549 79.4 µM | OVCAR-8 > 100 µM | OVCAR-3 78.9 µM | HOP-92 > 100 µM | UACC-257 54.5 µM

CC(C)N(C(=O)C12C3C4C5C3C1(C(=O)O)C5C42)C(C)C (stereo unspecified)
inactive: UO-31 > 100 µM | EKVX > 100 µM | Malme-3M > 100 µM | SF-539 > 100 µM | NCI-H522 > 100 µM | OVCAR-5 > 100 µM | SNB-19 > 100 µM | SF-268 > 100 µM | NCI-H23 > 100 µM | MOLT-4 > 100 µM | OVCAR-4 > 100 µM | A549 > 100 µM | OVCAR-8 > 100 µM | OVCAR-3 > 100 µM | HOP-92 > 100 µM | UACC-257 > 100 µM

COc1cccc(N2C(=O)[C@H]3[C@H]4CC(C(C)(C)C)CC[C@H]4c4c([nH]c5ccccc45)[C@H]3C2=O)c1 (stereo partly specified)
inactive: UO-31 17.6 µM | EKVX 20 µM | Malme-3M 20.6 µM | SF-539 23 µM | NCI-H522 19.4 µM | SNB-19 18.9 µM | SF-268 27.3 µM | NCI-H226 22.1 µM | NCI-H23 19.2 µM | MOLT-4 11.9 µM | A549 15.3 µM | OVCAR-8 14.9 µM | OVCAR-3 15.7 µM | UACC-257 20.6 µM
